{"source": "patent US7919471B2", "about": "“Method of modulating cell survival and reagents useful for same” (The University of Queensland, priority 1998, dated 2011)", "key": {"membrane bound c35": {"system": "membrane bound c35", "experiment": "Protection by soluble c35 / 29mer against death signalling from membrane-bound c35", "format": "cell-based", "settings": "for protection against membrane-linked, expressed c35: FIG. 7, microinjection of sptc35, peptide 30 minutes later", "protocol": "FIG. 7 is a graphical representation showing protection of membrane-bound killing-domain by a soluble 35 amino acid peptide and a soluble 29 amino acid peptide. The cells were subjected to microinjection of sptc35 or GFP followed 30 minutes later by either peptide c35 or the 29mer peptide."}, "p75^NTR-mediated death": {"system": "p75^NTR-mediated death", "experiment": "Modulation of p75NTR-induced killing of microinjected DRG neurons by co-expressed proteins, antisense or caspase inhibitors", "format": "cell-based, mouse", "settings": "for p75^NTR-mediated (induced) neural death: neurons over-expressing p75^NTR, in LIF, agent present or co-expressed", "from_the_text": "The inventors hypothesised that the free cytoplasmic expressed 35 amino acid domain might be able to interfere with death signalling from full length p75^NTR proteins by a dominant-negative mechanism, and attempted to inhibit the death by co-expressing the proteins. Given the results presented below regarding the ability of overexpression of Bcl-2 to enhance p75^NTR killing, this paradigm was used to test the ability of the c35 protein to inhibit death signalling.\nAs the inventors had shown that the death of dorsal root ganglia (DRG) sensory neurons in vitro and in vivo, was, at least in part, mediated by p75^NTR, p75^NTR was over-expressed in these cells by microinjecting rat p75^NTR cDNA expressing plasmid into the nucleus of mouse sensory neurons. These were cultured in the presence of the LIF to prevent neural death not linked to p75^NTR mechanisms. […] The injected neurons were observed over a 48 hour period and the viability was assessed. […] This was expected since the cytoplasmic tail contains a sequence with homology to the Fas/TNFR “death domain” [9].\nThe Bcl-2 family of proteins is involved in mediating apoptotic signalling pathways, and can homodimerise or heterodimerise with other family members. Bcl-2 and Bcl-xL are well characterised inhibitors of stress-induced apoptosis, JNK activation and neural death due to growth-factor limitation. However, both are poor inhibitors of Fas and TNFR mediated opoptosis. As it had been shown previously that high levels of Bcl-2 or Bcl-xL blocked neural cell death in a variety of models, the inventors examined whether over-expression of these proteins could block the death induced by p75^NTR.\nThe inventors tested, therefore, whether high endogenous Bcl-2 levels might be necessary for successful p75^NTR-mediated killing in normal neurons by assaying p75^NTR killing in Bcl-2 depleted cells. Endogenous Bcl-2 was down regulated by antisense as previously described.\nTo investigate whether the p75^NTR-Bcl-2 death-signalling cascade was dependent on caspase activation, inhibitors of caspases were employed."}, "[1]": {"system": "dorsal root ganglia (DRG) sensory neurons", "experiment": "Microinjection of plasmid expression constructs into DRG neurons cultured in LIF; survival of injected neurons", "format": "cell-based, mouse", "settings": "microinjected DRG neurons cultured in LIF", "protocol": "In order to investigate how p75^NTR signals neural death, the inventors devised a robust in vitro assay for p75^NTR induced death. Plasmid expression constructs were microinjected into individual neurons in the presence of the growth factor LIF, and the survival of the neurons expressing the different plasmids was determined. A series of plasmid constructs which encode incomplete p75^NTR proteins were made (see FIG. 1) and the ability of each protein to signal death when over expressed was assessed.\nTo further investigate the domain required for death signalling the inventors made constructs expressing p75^NTR proteins deleted for the extracellular domain or the extracellular and transmembrane domains. Proteins without extracellular domains retain the signal peptide which is responsible for correctly transporting the protein into the cell membrane. Proteins without transmembrane domains are expressed free in the cytoplasm of the cell and are epitope tagged with a FLAG motif for detection.\nAs the inventors had shown that the death of dorsal root ganglia (DRG) sensory neurons in vitro and in vivo, was, at least in part, mediated by p75^NTR, p75^NTR was over-expressed in these cells by microinjecting rat p75^NTR cDNA expressing plasmid into the nucleus of mouse sensory neurons. […] The injected neurons were observed over a 48 hour period and the viability was assessed. […]"}, "neurons": {"system": "neurons", "experiment": "Neural death after growth factor withdrawal with Bcl-2 over-expression", "format": "cell-based, mouse", "from_the_text": "Thus, at the same expression levels in the same neural population, Bcl-2 was able to prevent or enhance neural cell death depending on the nature of the death signal."}, "Schwann cells": {"system": "Schwann cells", "experiment": "Protection of Schwann cells against NGF-induced death", "format": "cell-based", "settings": "expressed from a genetic construct"}, "cells": {"system": "cells", "experiment": "Cell death mediated by palmitoylated (membrane-linked) peptides", "format": "cell-based", "settings": "FIG. 8", "protocol": "FIG. 8 is a graphical representation showing that peptide 29 which has a palmitoyl group at the membrane (amino) end and which facilitates association with the membrane mediates to cell death. […] F, Fluoro tagged; pen, penetratin.\nCells were treated with 2 μM peptide for 1-2 hours then washed. pen, penetratin, F29, 29 mer; Palm, palmitoylation. • ? pen F29 • ? pen F29 Palm • ? pen gp130 Palm • ? pen\nThe palmitoylation links the peptide to the plasma membrane. This membrane-linked 29mer leads to cell death whereas its soluble form protects cells against p75^NTR-mediated death signalling.\nCells were washed with peptide (2 μM) for approximately 110 minutes and the cells were then washed. Controls included penetratin-fused 29 mer, palmitoylated penetratin-fused 29 mer palmitoylated penetratin-fused gp130 and penetratin alone."}}, "note": "Where no end group is shown, it is not given here."}
{"substance": "29mer: truncated form of the 35mer; six amino acids deleted from the C-terminal end (SEQ ID NO:12) (KRWNSCKQNKQGANSRPVNQTPPPEGEKL; listed as Rattus norvegicus)", "values": [{"measurement": "protection against membrane-linked, expressed c35", "setting": "membrane bound c35", "value": "also protected against membrane-bound c35"}]}
{"substance": "Bcl-2 W188A protein: Bcl-2 protein with inactivating point mutation W188A in the BH2 domain", "values": [{"measurement": "p75^NTR-mediated (induced) neural death", "setting": "p75^NTR-mediated death", "value": "protected neurons from any p75^NTR-induced death"}]}
{"substance": "Bcl-2: over-expressed wildtype Bcl-2 protein", "values": [{"measurement": "neural death / survival after expression of the construct alone", "setting": "[1]", "value": "had no effect on cell survival"}, {"measurement": "p75^NTR-mediated (induced) neural death", "setting": "p75^NTR-mediated death", "value": "induced a significant increase in neural death"}, {"measurement": "neural death induced by NGF withdrawal", "setting": "neurons", "value": "able to protect against neural death induced by NGF withdrawal"}]}
{"substance": "G145E: Bcl-2 protein with inactivating point mutation G145E in the BH1 domain", "values": [{"measurement": "p75^NTR-mediated (induced) neural death", "setting": "p75^NTR-mediated death", "value": "enhanced killing effect seen with Bcl-2 coexpression was abrogated"}]}
{"substance": "c35 protein: free cytoplasmic 35 amino acid p75NTR domain expressed from a plasmid, not membrane associated, FLAG tagged (KRWNSCKQNKQGANSRPVNQTPPPEGEKLHSDSGI; also: FLAG tagged, end not given here; listed as Rattus norvegicus)", "values": [{"measurement": "neural death / survival after expression of the construct alone", "setting": "[1]", "value": "ability of the domain to induce death is removed"}, {"measurement": "killing induced by co-expression of p75^NTR and Bcl-2", "setting": "p75^NTR-mediated death; co-expression in DRG neurons (FIG. 5)", "value": "able to inhibit this killing"}, {"measurement": "protection against membrane bound c35", "setting": "membrane bound c35; expressed in soluble form", "value": "can also protect cells against membrane bound c35"}, {"measurement": "protection of Schwann cells against NGF-induced death", "setting": "Schwann cells", "value": "protected Schwann cells against NGF-induced death"}]}
{"substance": "soluble c35: 35 amino acid domain of p75NTR juxtaposed to the membrane, in soluble form (SEQ ID NO:8) (KRWNSCKQNKQGANSRPVNQTPPPEGEKLHSDSGI; listed as Rattus norvegicus)", "values": [{"measurement": "protection from death signalling by membrane bound c35", "setting": "membrane bound c35; FIG. 6", "value": "protects cells from death signalling in a dose-dependent manner"}, {"measurement": "protection against membrane-linked, expressed c35", "setting": "membrane bound c35", "value": "can also protect against membrane-linked, expressed c35"}, {"measurement": "cell death / protection", "setting": "cells", "value": "tends to protect the cells"}]}
{"substance": "z-VAD [reference compound]", "values": [{"measurement": "p75^NTR-mediated (induced) neural death", "setting": "p75^NTR-mediated death", "value": "significantly reduced"}]}
